According to patent publication US8895509B2, “MIR-200 family induces mesenchymal-to-epithelial transition (MET) in ovarian cancer cells” (Georgia Tech Research Corporation, priority 2010, dated 2014):

Test system: HEY cells
Assay: microarray profiling (Affymetrix HG-U133 Plus 2.0) of miR-429 transfected HEY cells
Format: cell-based, human
Details: for Fold-change: miR-429 transfected HEY cells
Protocol: 6×10^4 cells per well were seeded in 24-well plates. After 24 h, cells were transfected with 30 nM of miR-429 and miR-320 miRNA oligonucleotides (Ambion, Austin, Tex.) using Lipofectamine 2000 reagent (Invitrogen, Carlsbad, Calif.). The Ambion Pre-miRNA Precursor Negative Control was used as a control. Three days after transfection, cells were split and transfected again. This process was repeated every 3 days until 21 days when cells were assayed for response.
Microarray analyses were performed using the Affymetrix system (HG-U133 Plus 2.0; Santa Clara, Calif.) as previously described [Bowen et al., BMC Med Genomics 2009, 2:71]. Briefly, the expression data were analyzed using MAS 5.0 Statistical Algorithm encoded in the Affymetrix Expression Console application. The expression values were normalized across samples by Z-score calculation using Spotfire Decision Site software. […] Gene enrichment analyses were carried out using GeneGO (http://www.genego.com/) gene ontology software.

[1] = miR-429 transfected cells vs controls, p<0.015, fold change 1.5

“miR-429: miR-200 family member; mature miRNA UAAUACUGUCUGGUAAAACCGU (SEQ ID NO: 6); miRNA oligonucleotide (Ambion) transfected at 30 nM (listed as RNA, chemistry not given here; listed as Homo sapiens) [miR-200 family member; miRNA oligonucleotide (Ambion) transfected at 30 nM]” was tested, and the “Fold change (miR-429 transfected HEY cells relative to negative controls)” value (gene LOC148189) was −2.69, the “Fold change (miR-429 transfected HEY cells relative to negative controls)” value (gene LOC148987) was −3.07 and the “Fold change (miR-429 transfected HEY cells relative to negative controls)” value (gene LOC158381) was −7.31. The “Fold change (miR-429 transfected HEY cells relative to negative controls)” value (gene LOC284561) was −38.32, the “Fold change (miR-429 transfected HEY cells relative to negative controls)” value (gene LOC286178) was −10.56 and the Fold-change (gene LOC339290) was −1.87. The “Fold change (miR-429 transfected HEY cells relative to negative controls)” value (gene LOC401497) was −9.19, the “Fold change (miR-429 transfected HEY cells relative to negative controls)” value (gene LOC439949) was −2.48 and the “Fold change (miR-429 transfected HEY cells relative to negative controls)” value (gene LRP4) was −2.66. For the same substance, the “Fold change (miR-429 transfected HEY cells relative to negative controls)” value (gene MARS) was −6.59, the “Fold change (miR-429 transfected HEY cells relative to negative controls)” value (gene MARS2) was −2.50 and the “Fold change (miR-429 transfected HEY cells relative to negative controls)” value (gene MERTK) was −3.03. The “Fold change (miR-429 transfected HEY cells relative to negative controls)” value (gene MGC16121) was −3.46, the “Fold change (miR-429 transfected HEY cells relative to negative controls)” value (gene MRAP) was −3.05 and the “Fold change (miR-429 transfected HEY cells relative to negative controls)” value (gene NAV3) was −4.35. For the same substance, the “Fold change (miR-429 transfected HEY cells relative to negative controls)” value (gene NOC2L) was −26.91, the “Fold change (miR-429 transfected HEY cells relative to negative controls)” value (gene OSTM1) was −4.35 and the “Fold change (miR-429 transfected HEY cells relative to negative controls)” value (gene PAPPA2) was −23.75. The “Fold change (miR-429 transfected HEY cells relative to negative controls)” value (gene PCK2) was −4.44, the “Fold change (miR-429 transfected HEY cells relative to negative controls)” value (gene PCOTH) was −13.93 and the “Fold change (miR-429 transfected HEY cells relative to negative controls)” value (gene PHGDH) was −3.78. For the same substance, the “Fold change (miR-429 transfected HEY cells relative to negative controls)” value (gene PITX2) was −2.45, the Fold-change (gene PRTG) was −1.61 and the “Fold change (miR-429 transfected HEY cells relative to negative controls)” value (gene PSAT1) was −6.92. For the same substance, the “Fold change (miR-429 transfected HEY cells relative to negative controls)” value (gene PTPN13) was −3.10, the “Fold change (miR-429 transfected HEY cells relative to negative controls)” value (gene PYGO1) was −3.61 and the Fold-change (gene RDH10) was −2.08. The “Fold change (miR-429 transfected HEY cells relative to negative controls)” value (gene RGMB) was −2.89, the “Fold change (miR-429 transfected HEY cells relative to negative controls)” value (gene RPL22L1) was −2.45 and the Fold-change (gene SENP5) was −1.80. For the same substance, the “Fold change (miR-429 transfected HEY cells relative to negative controls)” value (gene SESN2) was −3.61, the “Fold change (miR-429 transfected HEY cells relative to negative controls)” value (gene SGSH) was −2.57 and the “Fold change (miR-429 transfected HEY cells relative to negative controls)” value (gene SH3PXD2B) was −5.13. For the same substance, the “Fold change (miR-429 transfected HEY cells relative to negative controls)” value (gene SHANK2) was −10.85, the Fold-change (gene SHMT2) was −2.04 and the “Fold change (miR-429 transfected HEY cells relative to negative controls)” value (gene SLC1A4) was −4.32. For the same substance, the “Fold change (miR-429 transfected HEY cells relative to negative controls)” value (gene SLC1A5) was −3.01, the “Fold change (miR-429 transfected HEY cells relative to negative controls)” value (gene SLC7A11) was −5.46 and the “Fold change (miR-429 transfected HEY cells relative to negative controls)” value (gene SLC24A3) was −10.20. The “Fold change (miR-429 transfected HEY cells relative to negative controls)” value (gene SLC27A4) was −6.23, the “Fold change (miR-429 transfected HEY cells relative to negative controls)” value (gene SNORA68) was −14.52 and the “Fold change (miR-429 transfected HEY cells relative to negative controls)” value (gene SRCAP) was −2.43. The Fold-change (gene STARD13) was −1.78, the “Fold change (miR-429 transfected HEY cells relative to negative controls)” value (gene SYF2) was −12.64 and the “Fold change (miR-429 transfected HEY cells relative to negative controls)” value (gene SYT11) was −2.66. The Fold-change (gene TIGD1) was −2.38, the “Fold change (miR-429 transfected HEY cells relative to negative controls)” value (gene TLR1) was −15.24 and the “Fold change (miR-429 transfected HEY cells relative to negative controls)” value (gene TMEM156) was −2.79. For the same substance, the “Fold change (miR-429 transfected HEY cells relative to negative controls)” value (gene TMEM201) was −5.58, the Fold-change (gene TSGA14) was −2.33 and the “change in expression by microarray” value (gene TSPAN13 (epithelial marker)) was “up-regulated”. For the same substance, the Fold-change (gene WDR43) was −1.88, the “Fold change (miR-429 transfected HEY cells relative to negative controls)” value (gene YARS) was −2.45 and the Fold-change (gene ZBTB24) was −1.87. For the same substance, the “change in expression by microarray” value (gene ZEB2) was “did not display a significant change in expression”, the “Fold change (miR-429 transfected HEY cells relative to negative controls)” value (gene ZNF30) was −2.62 and the Fold-change (gene ZNF697) was −1.91. For the same substance, the “Fold change (miR-429 transfected HEY cells relative to negative controls)” value (gene hCG_1654703) was −7.46, the “number of genes significantly down regulated” value [1] was 296 genes and the “number of genes significantly up regulated” value [1] was 373 genes. For the same substance, the “number of genes displaying significant changes in expression” value (miR-429 transfected cells vs negative control) was 669 genes.
